Data: patent US11040981B2, “Pyrrolotriazine compounds and methods of inhibiting TAM kinases” (Syros Pharmaceuticals, Inc., priority 2017, dated 2021)

Legend:
AXL = biological target: T1, AXL (Homo sapiens, UniProt P30530); experiment: TR-FRET kinase activity assay, AXL; type: biochemical; details: ATP at Km, 60 minutes
T1 sequence (P30530 26-894): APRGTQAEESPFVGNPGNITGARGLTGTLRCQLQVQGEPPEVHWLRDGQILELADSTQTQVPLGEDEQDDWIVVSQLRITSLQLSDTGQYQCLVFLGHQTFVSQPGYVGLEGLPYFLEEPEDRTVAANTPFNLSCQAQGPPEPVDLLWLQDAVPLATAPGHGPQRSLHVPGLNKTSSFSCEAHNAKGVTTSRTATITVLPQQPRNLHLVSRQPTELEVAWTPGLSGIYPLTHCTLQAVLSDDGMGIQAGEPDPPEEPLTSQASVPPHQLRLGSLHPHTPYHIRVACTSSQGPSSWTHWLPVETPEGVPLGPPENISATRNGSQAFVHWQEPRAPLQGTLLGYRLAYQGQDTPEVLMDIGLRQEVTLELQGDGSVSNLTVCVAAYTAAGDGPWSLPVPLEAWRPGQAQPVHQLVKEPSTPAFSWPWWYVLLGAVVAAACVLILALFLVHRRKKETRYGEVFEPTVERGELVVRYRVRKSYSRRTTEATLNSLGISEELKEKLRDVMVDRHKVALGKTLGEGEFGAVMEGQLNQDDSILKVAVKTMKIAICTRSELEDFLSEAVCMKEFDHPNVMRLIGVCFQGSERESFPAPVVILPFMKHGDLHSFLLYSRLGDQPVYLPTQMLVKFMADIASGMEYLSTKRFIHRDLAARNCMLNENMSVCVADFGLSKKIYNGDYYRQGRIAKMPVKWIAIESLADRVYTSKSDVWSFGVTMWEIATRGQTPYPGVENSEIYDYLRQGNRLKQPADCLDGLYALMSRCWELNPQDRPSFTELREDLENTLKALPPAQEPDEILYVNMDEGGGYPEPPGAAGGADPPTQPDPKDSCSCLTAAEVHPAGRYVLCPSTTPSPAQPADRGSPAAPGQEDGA
How it was run: (§1)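 Enzyme, fluorescent peptide substrate and compound were mixed, and the reaction was started with ATP at each kinase's Km, in 50 mM HEPES pH 7.5, 10 mM MgCl2, 1 mM EGTA, 0.01% Brij 35, 1 mM DTT at RT. After 60 minutes EDTA quench, Eu-labelled phospho-specific antibody was added for 30 minutes, and IC50 was derived from TR-FRET signal loss.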

FLT3 = biological target: T2, FLT3 (Homo sapiens, UniProt P36888); experiment: TR-FRET kinase activity assay, FLT3; type: biochemical; details: ATP at Km, 60 minutes
T2 sequence (P36888 27-993): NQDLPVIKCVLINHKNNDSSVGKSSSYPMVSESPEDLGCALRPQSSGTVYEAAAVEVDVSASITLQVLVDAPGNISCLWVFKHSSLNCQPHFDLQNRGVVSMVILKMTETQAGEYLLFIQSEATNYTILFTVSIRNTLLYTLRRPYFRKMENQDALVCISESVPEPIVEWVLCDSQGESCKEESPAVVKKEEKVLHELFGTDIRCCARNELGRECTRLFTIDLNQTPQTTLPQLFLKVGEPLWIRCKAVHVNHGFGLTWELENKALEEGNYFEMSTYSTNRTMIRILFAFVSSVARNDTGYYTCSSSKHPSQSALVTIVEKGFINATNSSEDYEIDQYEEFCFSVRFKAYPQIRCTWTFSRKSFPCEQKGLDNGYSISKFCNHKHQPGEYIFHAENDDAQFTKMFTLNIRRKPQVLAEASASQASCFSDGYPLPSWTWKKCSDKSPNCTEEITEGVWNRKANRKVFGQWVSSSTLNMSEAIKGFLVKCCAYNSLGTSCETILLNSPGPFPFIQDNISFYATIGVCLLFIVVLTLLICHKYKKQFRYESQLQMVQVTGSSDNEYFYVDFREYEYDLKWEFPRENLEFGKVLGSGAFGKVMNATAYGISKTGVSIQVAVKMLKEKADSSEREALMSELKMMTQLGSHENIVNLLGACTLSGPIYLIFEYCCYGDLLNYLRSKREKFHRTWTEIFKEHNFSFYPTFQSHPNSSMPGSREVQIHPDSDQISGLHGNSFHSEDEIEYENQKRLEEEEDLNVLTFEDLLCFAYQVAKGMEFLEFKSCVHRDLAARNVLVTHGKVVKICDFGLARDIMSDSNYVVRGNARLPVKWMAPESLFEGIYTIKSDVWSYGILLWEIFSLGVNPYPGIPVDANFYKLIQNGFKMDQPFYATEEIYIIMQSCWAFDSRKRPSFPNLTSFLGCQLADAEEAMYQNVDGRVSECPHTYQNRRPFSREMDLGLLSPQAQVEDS
How it was run: as §1

IC50 (AXL) [nM]	IC50 (FLT3) [nM]	Compound
≤ 100	100 to 1000	COC[C@H](C)Nc1ncc2c(-c3cnn(C(C)(C)C(=O)N4CCCC(C)(O)C4)c3)cc([C@H]3CC[C@H](O)CC3)n2n1 (some centres unmarked) [Compound 621]
≤ 100	1000 to 10000	COC[C@H](C)Nc1ncc2c(-c3cnn(C(C)(C)c4nnc(C(F)(F)F)o4)c3)cc([C@H]3CC[C@H](O)CC3)n2n1 [Compound 603]
≤ 100	100 to 1000	COC[C@H](C)Nc1ncc2c(-c3cnn(C4COC4)c3)cc([C@H]3CC[C@@](O)(C(C)C)CC3)n2n1 [Compound 618]
≤ 100	≤ 100	C[C@@H](CC(F)(F)F)Nc1ncc2c(-c3cnn(C(C)(C)C(=O)N4CCN(C)CC4)c3)cc(C3CCC(O)CC3)n2n1 (some centres unmarked) [Compound 626]
≤ 100	100 to 1000	[2H]C([2H])([2H])OCC(C)Nc1ncc2c(-c3cnn(C4COC4)c3)cc(C3CCC(O)CC3)n2n1 (centres unmarked) [Compound 630]
≤ 100	100 to 1000	COC[C@H](C)Nc1ncc2c(-c3cnn(CC(C)C)c3)cc([C@H]3CC[C@H](O)CC3)n2n1 [Compound 167]
≤ 100	100 to 1000	COC[C@H](C)Nc1ncc2c(-c3ccc(C4(C(=O)O)CC4)cc3)cc([C@H]3CC[C@H](O)CC3)n2n1 [Compound 173]
≤ 100	100 to 1000	COC[C@H](C)Nc1ncc2c(-c3ccnc(N4CCC(C)(O)CC4)c3)cc([C@H]3CC[C@H](O)CC3)n2n1 [Compound 605]
≤ 100	100 to 1000	COC[C@H](C)Nc1ncc2c(-c3cnn(C(C)(C)C(=O)N4CCCC4)c3)cc([C@H]3CC[C@H](O)CC3)n2n1 [Compound 612]
100 to 1000	≤ 100	COCC(C)Nc1ncc2c(-c3ccc(C(C)N4CCOCC4)cc3)cc(C3CCC(O)CC3)n2n1 (centres unmarked) [Compound 181]
≤ 100	1000 to 10000	COC[C@H](C)Nc1ncc2c(-c3cnn(C(C)(C)c4nnco4)c3)cc([C@H]3CC[C@H](O)CC3)n2n1 [Compound 604]
≤ 100	≤ 100	COCC(C)Nc1ncc2c(-c3ccc(C4(C(=O)N5CCS(=O)(=O)CC5)CC4)cc3)cc(C3CCC(O)CC3)n2n1 (centres unmarked) [Compound 172]
≤ 100	100 to 1000	COC[C@H](C)Nc1ncc2c(-c3cnn(CC(=O)N4CCOCC4)c3)cc([C@H]3CC[C@H](O)CC3)n2n1 [Compound 162]
≤ 100	100 to 1000	COC[C@H](C)Nc1ncc2c(-c3cnn(C(C)(C)c4nnc(C)s4)c3)cc([C@H]3CC[C@H](O)CC3)n2n1 [Compound 625]
≤ 100	100 to 1000	COC[C@H](C)Nc1ncc2c(-c3ccnc(C(C)(C)O)c3)cc([C@H]3CC[C@H](O)CC3)n2n1 [Compound 619]

Continued, molecule first:

Compound	IC50 (AXL) [nM]	IC50 (FLT3) [nM]
COC[C@H](C)Nc1ncc2c(-c3cnn(C(C)(C)c4nc(C)co4)c3)cc([C@H]3CC[C@H](O)CC3)n2n1 [Compound 623]	≤ 100	1000 to 10000
CCOC(=O)Cn1cc(-c2cc([C@H]3CC[C@H](O)CC3)n3nc(N[C@@H](C)COC)ncc23)cn1 [Compound 159]	≤ 100	100 to 1000
COC[C@H](C)Nc1ncc2c(-c3cnn(Cc4nnc(C)s4)c3)cc([C@H]3CC[C@H](O)CC3)n2n1 [Compound 596]	≤ 100	100 to 1000
COC[C@H](C)Nc1ncc2c(-c3ccc(C4(C(=O)N5CCOCC5)CC4)cc3)cc([C@H]3CC[C@H](O)CC3)n2n1 [Compound 171]	≤ 100	≤ 100
C[C@@H](COC(F)F)Nc1ncc2c(-c3ccnc(N4CCO[C@@H](C(C)(C)O)C4)c3)cc([C@H]3CC[C@H](O)CC3)n2n1 [Compound 597]	≤ 100	100 to 1000
COC[C@H](C)Nc1ncc2c(-c3ccc(C#N)c(F)c3)cc([C@H]3CC[C@H](O)CC3)n2n1 [Compound 169]	≤ 100	1000 to 10000
COC[C@H](C)N(C)c1ncc2c(-c3ccnc(C)c3)cc([C@H]3CC[C@H](O)CC3)n2n1 [Compound 175, (trans)-4-(2-(((S)-1-methoxypropan-2-yl)(methyl)amino)-5-(2-methylpyridin-4-yl)pyrrolo[2,1-f][1,2,4]triazin-7-yl)cyclohexanol]	1000 to 10000	1000 to 10000
COC[C@H](C)Nc1ncc2c(-c3ccc(CN4CCN(C)CC4)cc3)cc([C@H]3CC[C@@H](O)CC3)n2n1 [Compound 155]	≤ 100	100 to 1000
COCC(C)Nc1ncc2c(-c3ccc(C(C)N4CCOCC4)cc3)cc(C3CCC(O)CC3)n2n1 (centres unmarked) [Compound 182]	≤ 100	≤ 100
COC[C@H](C)Nc1ncc2c(-c3cnn(C(C)(C)C(=O)N4CC(C)(O)C4)c3)cc([C@H]3CC[C@H](O)CC3)n2n1 [Compound 622]	≤ 100	1000 to 10000
COC[C@H](C)Nc1ncc2c(-c3cnn(CC(=O)O)c3)cc([C@H]3CC[C@H](O)CC3)n2n1 [Compound 160]	≤ 100	1000 to 10000
COC[C@H](C)Nc1ncc2c(-c3cnccc3C)cc([C@H]3CC[C@H](O)CC3)n2n1 [Compound 168]	1000 to 10000	1000 to 10000
COC[C@H](C)Nc1ncc2c(-c3ccc([C@@H](C)N4CCOCC4)cc3)cc([C@H]3CC[C@H](O)CC3)n2n1 [Compound 156]	≤ 100	100 to 1000
COCC(C)Nc1ncc2c(-c3ccc(C(C)N4CCCC4)cc3)cc(C3CCC(O)CC3)n2n1 (centres unmarked) [Compound 164]	≤ 100	≤ 100
COC[C@H](C)Nc1ncc2c(N3CC4(COC4)CC3=O)cc([C@H]3CC[C@H](O)CC3)n2n1 [Compound 178]	1000 to 10000	1000 to 10000
CCCCC[C@H](C)Nc1ncc2c(-c3ccc(S(=O)(=O)N4CCOCC4)cc3)cc([C@H]3CC[C@H](O)CC3)n2n1 [Compound 102, (1S,4r)-4-(2-((S)-heptan-2-ylamino)-5-(4-(morpholinosulfonyl)phenyl)pyrrolo[2,1-f][1,2,4]triazin-7-yl)cyclohexanol]	100 to 1000	100 to 1000
COC[C@H](C)Nc1ncc2c(-c3ccnc(N4CCC(C)(O)C4)c3)cc(C3CCC(O)CC3)n2n1 (some centres unmarked) [Compound 633]	≤ 100	100 to 1000
COC[C@H](C)Nc1ncc2c(-c3cnn(CC(=O)NS(C)(=O)=O)c3)cc([C@H]3CC[C@H](O)CC3)n2n1 [Compound 174]	100 to 1000	1000 to 10000
C[C@@H](COC(F)F)Nc1ncc2c(-c3cnn(C(C)(C)C(=O)N4CC5(COC5)C4)c3)cc([C@H]3CC[C@H](O)CC3)n2n1 [Compound 613]	≤ 100	≤ 100
COCC(C)Nc1ncc2c(-c3cccc(C(C)N4CCCC4)c3)cc(C3CCC(O)CC3)n2n1 (centres unmarked) [Compound 158]	≤ 100	100 to 1000
COCC1(Nc2ncc3c(-c4ccc(CN5CCN(C)CC5)cc4)cc(C4CCC(O)CC4)n3n2)CC1 (centres unmarked) [Compound 149]	100 to 1000	100 to 1000
COC[C@H](C)Nc1ncc2c(C3=CC4CCC(C3)N4)cc([C@H]3CC[C@H](O)CC3)n2n1 (some centres unmarked) [Compound 170]	≤ 100	1000 to 10000
